Key:
human H3 receptor [1] = target: T1, human H3 receptor (Homo sapiens, UniProt Q9Y5N1); experiment: H3 receptor binding, cloned human H3 receptor stably expressed in SK-N-MC cells; settings: average of results
T1 construct: expressed in transfected cells
Procedure: (§1) Binding of compounds to the cloned human and rat H3 receptors, stably expressed in SK-N-MC cells, was performed as described by Barbier, A. J. et al. (Br. J. Pharmacol. 2004, 143(5), 649-661). Data for compounds tested in these assays are presented in Table 1 (human) and Table 2 (rat), as an average of the results obtained.

rat H3 receptor [2] = target: T2, rat H3 receptor (Rattus norvegicus, UniProt Q9QYN8); experiment: Cyclic AMP accumulation, SK-N-MC subline with reporter construct and rat H3 receptor; type: cell-based; settings: cAMP accumulation, SK-N-MC reporter cells expressing rat H3; average of results; read-out: Rat pA2 (converted)
T2 construct: expressed in transfected cells
Text: (§2) Sublines of SK-N-MC cells were created that expressed a reporter construct and either the human or rat H3 receptor. The pA2 values were obtained as described by Barbier et al. (2004). Data for compounds tested in these assays are presented in Table 3, as an average of the results obtained (NT=not tested).

human H3 receptor [3] = target: T1, human H3 receptor; experiment: Cyclic AMP accumulation, SK-N-MC subline with reporter construct and human H3 receptor; type: cell-based; settings: cAMP accumulation, SK-N-MC reporter cells expressing human H3; average of results; read-out: Human pA2 (converted)
Text: as §2

rat H3 receptor [4] = target: T2, rat H3 receptor; experiment: H3 receptor binding, cloned rat H3 receptor stably expressed in SK-N-MC cells; settings: average of results
Procedure: as §1

T1 sequence (Q9Y5N1 whole entry): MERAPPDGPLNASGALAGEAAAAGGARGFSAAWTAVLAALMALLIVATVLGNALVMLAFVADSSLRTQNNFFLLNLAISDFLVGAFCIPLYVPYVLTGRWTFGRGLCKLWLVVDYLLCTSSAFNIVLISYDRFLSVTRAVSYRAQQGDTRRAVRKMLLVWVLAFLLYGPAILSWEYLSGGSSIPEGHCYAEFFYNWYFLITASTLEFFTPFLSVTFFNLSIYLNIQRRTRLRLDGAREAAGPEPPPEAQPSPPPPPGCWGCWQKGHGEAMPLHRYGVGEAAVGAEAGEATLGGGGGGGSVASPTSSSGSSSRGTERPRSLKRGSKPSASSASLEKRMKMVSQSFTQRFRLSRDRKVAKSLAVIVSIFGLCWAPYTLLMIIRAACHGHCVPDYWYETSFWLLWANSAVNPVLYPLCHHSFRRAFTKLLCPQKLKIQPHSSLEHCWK
T2 sequence (Q9QYN8 whole entry): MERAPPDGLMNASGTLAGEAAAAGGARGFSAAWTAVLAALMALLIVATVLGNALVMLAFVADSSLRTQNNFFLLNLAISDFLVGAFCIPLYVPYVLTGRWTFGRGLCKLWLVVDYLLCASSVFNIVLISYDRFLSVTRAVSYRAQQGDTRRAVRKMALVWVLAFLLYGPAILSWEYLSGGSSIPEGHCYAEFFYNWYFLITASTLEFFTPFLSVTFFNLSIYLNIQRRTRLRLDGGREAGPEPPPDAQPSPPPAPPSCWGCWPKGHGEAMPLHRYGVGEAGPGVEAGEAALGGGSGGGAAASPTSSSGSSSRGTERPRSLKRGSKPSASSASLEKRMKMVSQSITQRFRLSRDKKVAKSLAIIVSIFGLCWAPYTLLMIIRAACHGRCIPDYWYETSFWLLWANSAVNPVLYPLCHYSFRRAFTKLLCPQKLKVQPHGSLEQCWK

Compound	Ki (human H3 receptor [1]) [nM]	further results
CC(C)N1CCCN(C(=O)c2ccc(CO)cc2)CC1 [Example 8, (4-Hydroxymethyl-phenyl)-(4-isopropyl-[1,4]diazepan-1-yl)-methanone]	31	
CC(C)N1CCN(C(=O)c2ccc(C(O)c3ccccc3)cc2)CC1 (stereo not drawn) [Example 3, [4-(Hydroxy-phenyl-methyl)-phenyl]-(4-isopropyl-piperazin-1-yl)-methanone]	14	
CCC(O)c1ccc(C(=O)N2CCN(C3CCC3)CC2)cc1 (stereo not drawn) [Example 15, (4-Cyclobutyl-piperazin-1-yl)-[4-(1-hydroxy-propyl)-phenyl]-methanone]	12	
CC(C)c1ccc(C(=O)N2CCN(C3CCC3)CC2)cc1 [Example 35, (4-Cyclobutyl-piperazin-1-yl)-(4-isopropyl-phenyl)-methanone]	11	
CC(O)c1ccc(C(=O)N2CCN(C(C)C)CC2)cc1 (stereo not drawn) [Example 4, [4-(1-Hydroxy-ethyl)-phenyl]-(4-isopropyl-piperazin-1-yl)-methanone]	58	
CCCc1ccc(C(=O)N2CCN(C3CCC3)CC2)cc1 [Example 38, (4-Cyclobutyl-piperazin-1-yl)-(4-propyl-phenyl)-methanone]	31	
CC(C)C(O)c1ccc(C(=O)N2CCN(C3CC3)CC2)cc1 (stereo not drawn) [Example 26, (4-Cyclopropyl-piperazin-1-yl)-[4-(1-hydroxy-2-methyl-propyl)-phenyl]-methanone]	84	
CC(C)(O)c1ccc(C(=O)N2CCN(C3CCC3)CC2)cc1 [Example 41, (4-Cyclobutyl-piperazin-1-yl)-[4-(1-hydroxy-1-methyl-ethyl)-phenyl]-methanone]	32	
CCC(C)N1CCN(C(=O)c2ccc(CO)cc2)CC1 (stereo not drawn) [Example 51, (4-sec-Butyl-piperazin-1-yl)-(4-hydroxymethyl-phenyl)-methanone]	530	
CCC(O)c1ccc(C(=O)N2CCN(C3CC3)CC2)cc1 (stereo not drawn) [Example 48, (4-Cyclopropyl-piperazin-1-yl)-[4-(1-hydroxy-propyl)-phenyl]-methanone]	221	
O=C(c1ccc(C(O)c2ccccc2)cc1)N1CCN(C2CC2)CC1 (stereo not drawn) [Example 25, (4-Cyclopropyl-piperazin-1-yl)-[4-(hydroxy-phenyl-methyl)-phenyl]-methanone]	59	
CCCCc1ccc(C(=O)N2CCN(C3CCC3)CC2)cc1 [Example 39, (4-Butyl-phenyl)-(4-cyclobutyl-piperazin-1-yl)-methanone]	24	
CCCCN1CCN(C(=O)c2ccc(CO)cc2)CC1 [Example 50, (4-Butyl-piperazin-1-yl)-(4-hydroxymethyl-phenyl)-methanone]	55	
O=C(c1ccc(C(O)C2CCCCC2)cc1)N1CCN(C2CC2)CC1 (stereo not drawn) [Example 24, [4-(Cyclohexyl-hydroxy-methyl)-phenyl]-(4-cyclopropyl-piperazin-1-yl)-methanone]	19	
O=C(c1ccc(CO)cc1)N1CCN(C2CC2)CC1 [Example 49, (4-Cyclopropyl-piperazin-1-yl)-(4-hydroxymethyl-phenyl)-methanone]	586	
O=C(c1ccc(CO)cc1)N1CCN(C2CCC2)CC1 [Example 18, (4-Cyclobutyl-piperazin-1-yl)-(4-hydroxymethyl-phenyl)-methanone]	43	
CC(O)c1ccc(C(=O)N2CCCN(C(C)C)CC2)cc1 (stereo not drawn) [Example 12, [4-(1-Hydroxy-ethyl)-phenyl]-(4-isopropyl-[1,4]diazepan-1-yl)-methanone]	17	
CCC(O)c1ccc(C(=O)N2CCCN(C(C)C)CC2)cc1 (stereo not drawn) [Example 10, [4-(1-Hydroxy-propyl)-phenyl]-(4-isopropyl-[1,4]diazepan-1-yl)-methanone]	9	Ki (rat H3 receptor [4]): 509 nM
CCC(O)c1ccc(C(=O)N2CCN(C(C)C)CC2)cc1 (stereo not drawn) [Example 2, [4-(1-Hydroxy-propyl)-phenyl]-(4-isopropyl-piperazin-1-yl)-methanone]	32	
CC(C)C(O)c1ccc(C(=O)N2CCN(C3CCC3)CC2)cc1 (stereo not drawn) [Example 16, (4-Cyclobutyl-piperazin-1-yl)-[4-(1-hydroxy-2-methyl-propyl)-phenyl]-methanone]	15	
CCCCCc1ccc(C(=O)N2CCN(C3CCC3)CC2)cc1 [Example 40, (4-Cyclobutyl-piperazin-1-yl)-(4-pentyl-phenyl)-methanone]	17	
O=C(c1ccc(CO)cc1)N1CCCN(C2CC2)CC1 [Example 28, (4-Cyclopropyl-[1,4]diazepan-1-yl)-(4-hydroxymethyl-phenyl)-methanone]	20	
CC(C)N1CCN(C(=O)c2ccc(CO)cc2)CC1 [Example 6, (4-Hydroxymethyl-phenyl)-(4-isopropyl-piperazin-1-yl)-methanone]	164	Kb (rat H3 receptor [2]): 295 nM
CCc1ccc(C(=O)N2CCN(C3CCC3)CC2)cc1 [Example 34, (4-Cyclobutyl-piperazin-1-yl)-(4-ethyl-phenyl)-methanone]	28	

Further lines, with some results ahead:

Ki (human H3 receptor [1]) [nM]	Compound	further results
7	O=C(c1ccc(C2(O)CCCCC2)cc1)N1CCN(C2CCC2)CC1 [Example 42, (4-Cyclobutyl-piperazin-1-yl)-[4-(1-hydroxy-cyclohexyl)-phenyl]-methanone]	
3	CC(C)N1CCCN(C(=O)c2ccc(C(=O)C3CCCCC3)cc2)CC1 [Example 9, (4-Cyclohexanecarbonyl-phenyl)-(4-isopropyl-[1,4]diazepan-1-yl)-methanone]	
4	O=C(c1ccc(C(O)c2ccccc2)cc1)N1CCN(C2CCC2)CC1 (stereo not drawn) [Example 14, (4-cyclobutyl-piperazin-1-yl)-[4-(hydroxy-phenyl-methyl)-phenyl]-methanone]	
3	CC(C)C(O)c1ccc(C(=O)N2CCCN(C3CC3)CC2)cc1 (stereo not drawn) [Example 32, (4-Cyclopropyl-[1,4]diazepan-1-yl)-[4-(1-hydroxy-2-methyl-propyl)-phenyl]-methanone]	Kb (rat H3 receptor [2]): 12 nM; Kb (human H3 receptor [3]): 0.794 nM
1	O=C(c1ccc(C(O)C2CCCCC2)cc1)N1CCCN(C2CC2)CC1 (stereo not drawn) [Example 27, [4-(Cyclohexyl-hydroxy-methyl)-phenyl]-(4-cyclopropyl-[1,4]diazepan-1-yl)-methanone]	Kb (rat H3 receptor [2]): 6.92 nM; Kb (human H3 receptor [3]): 0.955 nM; Ki (rat H3 receptor [4]): 37 nM
6	CC(C)C(O)c1ccc(C(=O)N2CCCN(C(C)C)CC2)cc1 (stereo not drawn) [Example 13, [4-(1-Hydroxy-2-methyl-propyl)-phenyl]-(4-isopropyl-[1,4]diazepan-1-yl)-methanone]	
7	CC(C)N1CCN(C(=O)c2ccc(C(O)C3CCCCC3)cc2)CC1 (stereo not drawn) [Example 1, [4-(Cyclohexyl-hydroxy-methyl)-phenyl]-(4-isopropyl-piperazin-1-yl)-methanone]	
2	CC(C)N1CCCN(C(=O)c2ccc(C(O)c3ccccc3)cc2)CC1 (stereo not drawn) [Example 11, [4-(Hydroxy-phenyl-methyl)-phenyl]-(4-isopropyl-[1,4]diazepan-1-yl)-methanone]	Ki (rat H3 receptor [4]): 78 nM
1	O=C(c1ccc(C(O)C2CCCCC2)cc1)N1CCCN(C2CCC2)CC1 (stereo not drawn) [Example 20, (4-Cyclobutyl-[1,4]diazepan-1-yl)-[4-(cyclohexyl-hydroxy-methyl)-phenyl]-methanone]	
7	O=C(c1ccc(Cc2ccccc2)cc1)N1CCN(C2CCC2)CC1 [Example 37, (4-Benzyl-phenyl)-(4-cyclobutyl-piperazin-1-yl)-methanone]	
1	O=C(c1ccc(C(=O)N2CCCN(C3CC3)CC2)cc1)C1CCCCC1 [Example 29, (4-Cyclohexanecarbonyl-phenyl)-(4-cyclopropyl-[1,4]diazepan-1-yl)-methanone]	Kb (rat H3 receptor [2]): 6.92 nM; Kb (human H3 receptor [3]): 0.912 nM
1	CC(C)C(O)c1ccc(C(=O)N2CCCN(C3CCC3)CC2)cc1 (stereo not drawn) [Example 22, (4-Cyclobutyl-[1,4]diazepan-1-yl)-[4-(1-hydroxy-2-methyl-propyl)-phenyl]-methanone]	
1	O=C(c1ccc(C(O)c2ccccc2)cc1)N1CCCN(C2CCC2)CC1 (stereo not drawn) [Example 21, (4-Cyclobutyl-[1,4]diazepan-1-yl)-[4-(hydroxy-phenyl-methyl)-phenyl]-methanone]	
9	O=C(c1ccc(C2CCCCC2)cc1)N1CCN(C2CCC2)CC1 [Example 36, (4-Cyclobutyl-piperazin-1-yl)-(4-cyclohexyl-phenyl)-methanone]	Ki (rat H3 receptor [4]): 79 nM
1	CCC(O)c1ccc(C(=O)N2CCCN(C3CCC3)CC2)cc1 (stereo not drawn) [Example 19, (4-Cyclobutyl-[1,4]diazepan-1-yl)-[4-(1-hydroxy-propyl)-phenyl]-methanone]	Kb (rat H3 receptor [2]): 3.31 nM; Kb (human H3 receptor [3]): 0.182 nM
4	O=C(c1ccc(C(O)C2CCCCC2)cc1)N1CCN(C2CCC2)CC1 (stereo not drawn) [Example 17, (4-Cyclobutyl-piperazin-1-yl)-[4-(cyclohexyl-hydroxy-methyl)-phenyl]-methanone]	
4	CCC(O)c1ccc(C(=O)N2CCCN(C3CC3)CC2)cc1 (stereo not drawn) [Example 31, (4-Cyclopropyl-[1,4]diazepan-1-yl)-[4-(1-hydroxy-propyl)-phenyl]-methanone]	Ki (rat H3 receptor [4]): 205 nM
6	CC(C)C(O)c1ccc(C(=O)N2CCN(C(C)C)CC2)cc1 (stereo not drawn) [Example 5, [4-(1-Hydroxy-2-methyl-propyl)-phenyl]-(4-isopropyl-piperazin-1-yl)-methanone]	
2	O=C(c1ccc(CO)cc1)N1CCCN(C2CCC2)CC1 [Example 23, (4-Cyclobutyl-[1,4]diazepan-1-yl)-(4-hydroxymethyl-phenyl)-methanone]	
